Measurements from patent US20210113522A1, “COUMARIN DERIVATIVE AS ANTI-ASTHMATIC AGENT, PHARMACEUTICAL COMPOSITION THEREOF, ITS PREPARATION AND USE” (I-NOVA MEDICINSKA ISTRAZIVANJA D.O.O., priority 2017, published 2021).

Tested on: OVA-induced airway inflammation
Assay: OVA model of lung eosinophilia: differential cell count of bronchoalveolar lavage (BAL) cells
Type: in vivo, Balb/c mice
Details: vs PBS-treated OVA mice; 1 2 mg/kg preventively or therapeutically, beclomethasone 1 mg/kg, via the airway
Description: The study was performed on female 8-week old Balb/c mice. The animals were kept under specific-pathogen-free (SPF) conditions with temperature control and HEPA system for breeding of laboratory animals. Experiments were performed during the light phase of the cycle. 40 mice (n=10/group) were separated into 4 groups:
Group 1: OVA only Group 2: OVA+BECLOMETHASONE (1 mg/kg) Group 3: OVA+Compound 1 (preventively; 2 mg/kg) Group 4: OVA+Compound 1 (therapeutically; 2 mg/kg)
Each group of mice was sensitized on days 0 and 14 with 20 μg/mouse of OVA adsorbed on 2 mg alum. On days 20, 21 and 22 the animals were stimulated with 100 μg/mouse OVA intranasally in a final volume of 50 μL/mouse.
The first group (the positive control) was injected with 0.1 M phosphate-buffered saline (PBS) only.
The second and third groups were treated preventively with compound 1 (2 mg/kg) or beclomethasone (1 mg/kg) on days 18-22 via the airway.
The fourth group was treated therapeutically with compound 1 (2 mg/kg) on days 23-25 via the airway.
We examined the effect of compound 1 treatment in the cell response on OVA-induced airway inflammation. OVA (100 μg/50 μL of PBS) was introduced intranasally (i.n.) 6 days after the second intraperitoneal (i.p.) sensitization with OVA. The treatment with compound 1 (preventively and therapeutically), beclomethasone or PBS only was performed according the treatment schedule; see FIG. 2.
Two days after the last i.n. challenge, BAL cells were collected, and differential cell counts were performed to identify the number of various infiltrating inflammatory cells, see FIGS. 3A, 3B.
Female 8-week old Balb/c mice were obtained from Harlan Farm (Blackthorn, UK). The animals were kept under specific-pathogen-free (SPF) conditions with temperature control and HEPA system for breeding of laboratory animals. The manipulations were approved by the Animal Care Commission at the Institute of Microbiology in accordance with the International regulations (EU Directive 2010/63/EU).
Experiments were performed during the light phase of the cycle. The animals were allowed to adapt to the laboratory for at least 1 h before testing and were used only once. 40 mice (n=10/group) were separated into 4 groups:
Group 1: OVA only Group 2: OVA+beclomethasone (1 mg/kg) Group 3: OVA+compound 1 (preventively; 2 mg/kg) Group 4: OVA+compound 1 (therapeutically; 2 mg/kg)
The experimental procedure was carried out as described in literature reference 22. The procedure is as follows: • (1) using scissors, a small incision in the neck skin on the trachea was made and the skin upwards was opened to expose the salivary glands; the trachea was exposed; • (2) a small semi-excision of the trachea was made to allow a 21-G lavage tube to pass into the trachea; • (3) collection of the lavage fluid—0.5 mL of sterile PBS was injected into the lung. The saline from the first lavage was aspirate; the procedure was repeated 5 times; • (4) all lavages were pooled and were centrifuge for 5 min. at 300×g/4° C. to pellet the cells; the supernatant was discarded; • (5) the pellet was re-suspended in 1.5 mL ice cold PBS and centrifuge for 5 min. at 300×g/4° C.; the supernatant was discarded; • (6) the pellet was re-suspended in 1.0 mL ice cold PBS and the cells were counted; • (7) 50 000 cells were placed on the slide for cytospin; • (8) the cytrospin was performed for 10 min at 700 rpm; and • (9) the slides were air-dried and proceeded to cell staining.
• (1) fix in Solution A (fixative); • (2) dip 5 times in Solution C (red); • (3) dip 5 times in Solution B (blue); • (4) rinse the slides in distilled water; • (5) air-drying of the slides; • (6) mounted the cover slides; and then • (7) 400 cells were counted under light microscopy. Histology Staining was then Performed as Follows: The lungs from all animals were fixed in 10% formalin (pH 7.4). […]

O=c1oc2cc(O)cc(O)c2c(O)c1-c1coc2c1c(=O)oc1cc(O)cc(O)c12 [Compound 1, 7,9-dihydroxy-3-(4,5,7-trihydroxy-2-oxo-2H-chromene-3-yl)-4H-furo[3,2-c]chromen-4-one]
Eosinophil infiltration into the lungs (BAL): strongly suppressed
Lymphocyte infiltration (BAL): stimulate
Macrophages infiltration (BAL): stimulate
Neutrophil infiltration (BAL): stimulate

C[C@H]1C[C@H]2[C@@H]3CCC4=CC(=O)C=C[C@]4(C)[C@@]3(Cl)[C@@H](O)C[C@]2(C)[C@@]1(O)C(=O)CO [beclomethasone, reference compound]
Eosinophil infiltration into the lungs (BAL): suppressed
Lymphocyte infiltration (BAL): induced moderate
Macrophages infiltration (BAL): induced moderate
Neutrophil infiltration (BAL): suppressed
